# Measurements: ChEMBL document CHEMBL6074671, “Discovery of Pyridine-2-Carboxamides Derivatives as Potent and Selective HPK1 Inhibitors for the Treatment of Cancer” (J Med Chem, 2024)
# Legend:
# [1] = target: T1, Mitogen-activated protein kinase kinase kinase kinase 3 (Homo sapiens, UniProt Q8IVH8); assay: Inhibition of GLK (unknown origin)
# T1 sequence (Q8IVH8 whole entry): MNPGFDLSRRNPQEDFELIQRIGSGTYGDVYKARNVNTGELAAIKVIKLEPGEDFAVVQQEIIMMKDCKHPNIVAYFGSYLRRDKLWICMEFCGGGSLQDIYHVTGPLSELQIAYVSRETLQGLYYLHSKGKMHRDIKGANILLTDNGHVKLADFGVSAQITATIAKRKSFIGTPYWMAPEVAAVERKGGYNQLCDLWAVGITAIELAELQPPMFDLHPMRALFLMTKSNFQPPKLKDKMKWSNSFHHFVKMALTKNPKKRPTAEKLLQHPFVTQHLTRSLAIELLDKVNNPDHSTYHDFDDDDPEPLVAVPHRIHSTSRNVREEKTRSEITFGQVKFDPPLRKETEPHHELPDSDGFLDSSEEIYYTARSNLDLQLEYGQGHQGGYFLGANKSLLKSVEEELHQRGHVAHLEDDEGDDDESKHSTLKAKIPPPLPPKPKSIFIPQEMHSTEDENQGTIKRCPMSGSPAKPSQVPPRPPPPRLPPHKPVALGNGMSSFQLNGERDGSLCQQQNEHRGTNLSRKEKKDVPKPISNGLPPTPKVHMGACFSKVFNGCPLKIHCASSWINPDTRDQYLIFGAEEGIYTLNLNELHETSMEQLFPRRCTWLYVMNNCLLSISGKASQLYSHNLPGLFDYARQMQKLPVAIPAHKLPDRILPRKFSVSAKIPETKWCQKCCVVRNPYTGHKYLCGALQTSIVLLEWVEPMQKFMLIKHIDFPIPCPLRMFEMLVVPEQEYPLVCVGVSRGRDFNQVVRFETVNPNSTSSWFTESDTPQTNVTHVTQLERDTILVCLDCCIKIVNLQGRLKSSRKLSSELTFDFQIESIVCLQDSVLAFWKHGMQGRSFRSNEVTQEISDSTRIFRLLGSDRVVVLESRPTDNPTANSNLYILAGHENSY
# [2] = target: Mitogen-activated protein kinase kinase kinase kinase 1 (Homo sapiens, UniProt Q92918); assay: Inhibition of HPK1 in human PBMC cells assessed as IL-2 level pretreated for 4 hrs followed by anti-CD3/CD28 stimulation for 20 mins by HTRF method; type: cell-based
# Chain of Mitogen-activated protein kinase kinase kinase kinase 1 (Q92918 whole entry): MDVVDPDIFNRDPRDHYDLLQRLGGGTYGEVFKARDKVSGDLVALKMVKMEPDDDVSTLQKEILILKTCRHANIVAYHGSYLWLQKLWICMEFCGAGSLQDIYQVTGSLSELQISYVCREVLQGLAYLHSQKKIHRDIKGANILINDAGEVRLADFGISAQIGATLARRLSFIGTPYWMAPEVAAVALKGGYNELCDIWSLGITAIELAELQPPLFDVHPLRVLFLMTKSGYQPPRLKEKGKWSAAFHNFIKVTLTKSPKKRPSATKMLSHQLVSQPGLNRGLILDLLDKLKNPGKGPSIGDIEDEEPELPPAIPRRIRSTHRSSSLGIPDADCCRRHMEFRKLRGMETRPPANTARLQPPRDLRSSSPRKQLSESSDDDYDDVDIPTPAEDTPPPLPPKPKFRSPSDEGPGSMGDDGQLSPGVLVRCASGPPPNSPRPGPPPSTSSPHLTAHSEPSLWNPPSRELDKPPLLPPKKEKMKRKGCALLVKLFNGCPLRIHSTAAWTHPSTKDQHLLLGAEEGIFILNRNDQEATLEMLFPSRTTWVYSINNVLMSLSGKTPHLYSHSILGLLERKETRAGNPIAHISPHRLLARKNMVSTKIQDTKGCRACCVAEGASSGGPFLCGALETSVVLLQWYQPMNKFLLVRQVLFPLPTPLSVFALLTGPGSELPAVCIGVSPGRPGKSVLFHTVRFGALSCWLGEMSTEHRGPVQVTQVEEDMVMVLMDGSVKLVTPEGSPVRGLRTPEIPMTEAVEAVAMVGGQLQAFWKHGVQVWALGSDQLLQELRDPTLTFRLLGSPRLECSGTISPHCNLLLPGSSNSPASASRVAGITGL
# [3] = Half life in Sprague-Dawley rat at 10 mg/kg, po; type: ADME, organism-based; conditions: in vivo
# [4] = Oral bioavailability n Sprague-Dawley rat at 10 mg/kg; type: ADME, organism-based; conditions: in vivo
# [5] = Dose normalized AUC (0 to 24 hrs) in Balb/c mouse at 10 mg/kg, po; type: ADME, organism-based; conditions: in vivo
# [6] = target: Mitogen-activated protein kinase kinase kinase kinase 2 (Homo sapiens, UniProt Q12851); assay: Inhibition of human recombinant full length GST tagged N-terminal MAP4K2 (1 to 820 end residues) expressed in insect Sf21 cells
# Chain of Mitogen-activated protein kinase kinase kinase kinase 2 (Q12851 whole entry): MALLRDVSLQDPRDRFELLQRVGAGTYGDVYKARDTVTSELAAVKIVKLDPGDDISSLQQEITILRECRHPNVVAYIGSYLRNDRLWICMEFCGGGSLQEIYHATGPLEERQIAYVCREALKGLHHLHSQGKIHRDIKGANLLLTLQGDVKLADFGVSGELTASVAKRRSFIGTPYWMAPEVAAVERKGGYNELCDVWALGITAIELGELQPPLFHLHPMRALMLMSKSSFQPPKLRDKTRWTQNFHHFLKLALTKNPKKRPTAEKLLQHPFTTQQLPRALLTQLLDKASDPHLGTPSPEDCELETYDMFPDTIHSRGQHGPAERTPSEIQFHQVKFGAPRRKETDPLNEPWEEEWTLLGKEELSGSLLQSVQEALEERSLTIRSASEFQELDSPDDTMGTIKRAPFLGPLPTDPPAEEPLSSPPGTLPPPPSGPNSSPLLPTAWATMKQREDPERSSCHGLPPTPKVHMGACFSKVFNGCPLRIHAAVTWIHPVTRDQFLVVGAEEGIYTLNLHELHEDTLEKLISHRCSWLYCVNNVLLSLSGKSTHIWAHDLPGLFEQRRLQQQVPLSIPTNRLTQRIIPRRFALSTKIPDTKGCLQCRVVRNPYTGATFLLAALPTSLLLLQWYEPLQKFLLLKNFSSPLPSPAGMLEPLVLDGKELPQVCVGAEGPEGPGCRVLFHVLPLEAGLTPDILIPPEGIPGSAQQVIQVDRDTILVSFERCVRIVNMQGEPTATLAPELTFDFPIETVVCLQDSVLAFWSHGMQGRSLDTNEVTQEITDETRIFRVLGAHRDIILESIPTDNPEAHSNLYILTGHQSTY
# [7] = target: T1, Mitogen-activated protein kinase kinase kinase kinase 3; assay: Inhibition of human recombinant GST-tagged MAP4K3 ([…]) extracted from Baculovirus expression system
# [8] = target: Mitogen-activated protein kinase kinase kinase kinase 4 (Homo sapiens, UniProt O95819); assay: Inhibition of catalytic domain N-terminal GST tagged human MAP4K4 (1 to 328 residues) expressed in insect Sf21 cells
# Chain of Mitogen-activated protein kinase kinase kinase kinase 4 (O95819 whole entry, the tested form may be a part): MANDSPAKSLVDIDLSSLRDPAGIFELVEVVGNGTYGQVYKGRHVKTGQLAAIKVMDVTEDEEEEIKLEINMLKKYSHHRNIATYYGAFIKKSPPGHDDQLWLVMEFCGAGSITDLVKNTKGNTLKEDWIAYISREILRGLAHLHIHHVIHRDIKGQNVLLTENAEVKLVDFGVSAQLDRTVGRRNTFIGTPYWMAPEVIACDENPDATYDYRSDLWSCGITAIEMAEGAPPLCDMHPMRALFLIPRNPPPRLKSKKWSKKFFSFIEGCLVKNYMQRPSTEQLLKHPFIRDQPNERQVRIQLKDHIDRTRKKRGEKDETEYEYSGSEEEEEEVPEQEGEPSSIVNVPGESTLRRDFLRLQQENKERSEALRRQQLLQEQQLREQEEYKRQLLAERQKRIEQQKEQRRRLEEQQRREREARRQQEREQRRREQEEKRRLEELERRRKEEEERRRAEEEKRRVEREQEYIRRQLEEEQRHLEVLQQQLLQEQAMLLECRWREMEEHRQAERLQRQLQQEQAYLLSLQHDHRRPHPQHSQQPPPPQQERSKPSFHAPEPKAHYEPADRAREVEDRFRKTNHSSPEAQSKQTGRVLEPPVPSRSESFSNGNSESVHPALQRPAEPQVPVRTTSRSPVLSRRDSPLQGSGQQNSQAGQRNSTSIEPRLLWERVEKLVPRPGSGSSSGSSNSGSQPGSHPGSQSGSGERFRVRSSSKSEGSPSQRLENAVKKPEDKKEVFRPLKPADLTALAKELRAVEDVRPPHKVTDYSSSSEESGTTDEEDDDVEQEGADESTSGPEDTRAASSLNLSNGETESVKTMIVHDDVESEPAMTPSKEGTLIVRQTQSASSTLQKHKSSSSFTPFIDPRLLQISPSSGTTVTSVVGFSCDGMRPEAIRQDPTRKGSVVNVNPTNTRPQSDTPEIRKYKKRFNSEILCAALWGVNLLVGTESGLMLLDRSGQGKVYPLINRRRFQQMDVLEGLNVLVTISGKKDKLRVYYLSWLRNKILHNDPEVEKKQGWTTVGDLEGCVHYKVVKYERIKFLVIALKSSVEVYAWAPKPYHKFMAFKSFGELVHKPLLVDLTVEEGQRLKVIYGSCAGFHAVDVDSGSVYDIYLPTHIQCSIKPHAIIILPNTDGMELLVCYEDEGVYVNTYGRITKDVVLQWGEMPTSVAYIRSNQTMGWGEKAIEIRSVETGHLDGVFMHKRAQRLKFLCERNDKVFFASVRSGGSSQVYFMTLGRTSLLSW
# [9] = target: Misshapen-like kinase 1 (Homo sapiens, UniProt Q8N4C8); assay: Inhibition of catalytic domain human GST-tagged N-terminal MAP4K6 (1 to 314 residues) expressed in insect Sf21 cells
# [10] = target: Tyrosine-protein kinase Fyn (Homo sapiens, UniProt P06241); assay: Inhibition of FYN (unknown origin)
# [11] = target: Tyrosine-protein kinase SYK (Homo sapiens, UniProt P43405); assay: Inhibition of SYK (unknown origin)
# [12] = target: Receptor-type tyrosine-protein kinase FLT3 (Homo sapiens, UniProt P36888); assay: Inhibition of FLT3 (unknown origin)
# [13] = target: Tyrosine-protein kinase JAK1 (Homo sapiens, UniProt P23458); assay: Inhibition of JAK1 (unknown origin)
# [14] = target: Serine/threonine-protein kinase PAK 3 (Homo sapiens, UniProt O75914); assay: Inhibition of PAK3 (unknown origin)
# [15] = target: Proto-oncogene tyrosine-protein kinase receptor Ret (Homo sapiens, UniProt P07949); assay: Inhibition of RET (unknown origin)
# Chain of Proto-oncogene tyrosine-protein kinase receptor Ret (P07949 whole entry): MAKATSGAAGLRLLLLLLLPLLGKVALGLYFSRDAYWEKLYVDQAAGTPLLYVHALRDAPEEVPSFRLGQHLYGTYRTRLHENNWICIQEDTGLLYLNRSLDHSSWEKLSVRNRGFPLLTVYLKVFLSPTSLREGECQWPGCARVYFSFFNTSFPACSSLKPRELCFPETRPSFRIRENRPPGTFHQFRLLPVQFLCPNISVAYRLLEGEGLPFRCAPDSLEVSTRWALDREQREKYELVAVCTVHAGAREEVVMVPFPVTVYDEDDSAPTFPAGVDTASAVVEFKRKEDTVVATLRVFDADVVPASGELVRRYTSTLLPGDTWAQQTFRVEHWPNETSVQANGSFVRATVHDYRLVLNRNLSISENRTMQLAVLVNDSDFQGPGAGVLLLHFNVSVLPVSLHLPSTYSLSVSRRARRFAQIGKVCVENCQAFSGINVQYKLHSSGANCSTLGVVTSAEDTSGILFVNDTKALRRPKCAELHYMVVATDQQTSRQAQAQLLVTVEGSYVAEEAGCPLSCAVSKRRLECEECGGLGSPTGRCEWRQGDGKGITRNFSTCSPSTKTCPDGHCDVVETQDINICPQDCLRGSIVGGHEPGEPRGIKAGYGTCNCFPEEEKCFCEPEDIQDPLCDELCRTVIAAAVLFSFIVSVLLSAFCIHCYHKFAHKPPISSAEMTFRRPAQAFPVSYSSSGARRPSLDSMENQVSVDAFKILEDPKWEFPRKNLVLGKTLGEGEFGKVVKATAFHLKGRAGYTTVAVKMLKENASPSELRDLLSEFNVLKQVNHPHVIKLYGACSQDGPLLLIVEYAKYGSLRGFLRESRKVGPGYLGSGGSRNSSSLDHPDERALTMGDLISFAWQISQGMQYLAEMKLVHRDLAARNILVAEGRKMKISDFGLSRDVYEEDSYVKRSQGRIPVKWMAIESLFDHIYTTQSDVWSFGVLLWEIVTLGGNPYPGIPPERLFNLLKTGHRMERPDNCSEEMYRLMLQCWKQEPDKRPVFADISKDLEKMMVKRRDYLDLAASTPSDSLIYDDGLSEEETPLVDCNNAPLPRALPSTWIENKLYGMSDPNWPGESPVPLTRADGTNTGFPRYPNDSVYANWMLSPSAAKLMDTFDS
# [16] = Inhibition of ABL (unknown origin); parameters: species or system Homo sapiens
# [17] = target: Tyrosine-protein kinase Blk (Homo sapiens, UniProt P51451); assay: Inhibition of BLK (unknown origin)
# Chain of Tyrosine-protein kinase Blk (P51451 whole entry): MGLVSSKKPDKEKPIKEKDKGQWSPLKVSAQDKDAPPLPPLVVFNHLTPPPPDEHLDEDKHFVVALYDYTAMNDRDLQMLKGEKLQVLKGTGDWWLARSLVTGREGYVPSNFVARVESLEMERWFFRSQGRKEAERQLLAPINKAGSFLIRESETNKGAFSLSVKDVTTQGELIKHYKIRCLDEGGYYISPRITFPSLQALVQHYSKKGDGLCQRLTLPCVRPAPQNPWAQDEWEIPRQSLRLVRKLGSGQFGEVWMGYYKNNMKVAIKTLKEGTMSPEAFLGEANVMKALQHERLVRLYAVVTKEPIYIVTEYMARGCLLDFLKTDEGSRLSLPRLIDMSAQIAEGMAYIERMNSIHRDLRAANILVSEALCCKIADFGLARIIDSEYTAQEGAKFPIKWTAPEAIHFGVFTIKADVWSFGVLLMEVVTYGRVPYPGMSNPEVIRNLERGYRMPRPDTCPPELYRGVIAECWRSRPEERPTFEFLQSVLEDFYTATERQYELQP
# [18] = Toxicity in Balb/c mouse assessed as effect on body weight loss at 1.5 to 12 mg/kg, po BID measured after 15 days in presence of anti-PD1; type: organism-based; conditions: in vivo, 360 h, dose 1.5-12 mg/kg, time 15 day
# [19] = system: MC-38; assay: Synergistic antitumor activity against mouse MC38 cells implanted in C57BL/6 mouse model assessed as tumor growth inhibition at high dose, po BID measured after 12 days in presence of anti-PD-1 relative to control; type: functional; conditions: time 12 day
# [20] = Toxicity in C57BL/6 mouse implanted with mouse MC38 cells assessed as increase in survival at low dose, po BID measured after 12 days in presence of anti-PD-1; type: organism-based; conditions: in vivo, 288 h, time 12 day
# [21] = Kinetic solubility of the compound in PBS buffer at pH 7.4 measured after 24 hrs by HPL-UV analysis; type: physicochemical; conditions: read-out: Kinetic_solubility
# [22] = Efflux ratio in human Caco-2 cells; type: ADME, cell-based
# [23] = Plasma protein binding in rat assessed as unbound fraction at 2 uM incubated for 4 hrs by LC-MS/MS analysis; type: ADME, cell-free
# [24] = target: Cytochrome P450 2C19 (Homo sapiens, UniProt P33261); assay: Inhibition of CYP2C19 in human liver microsomes using S-mephenytoin 4-hydroxylation as substrate incubated for 10 mins in presence of NADPH by LC-MS/MS analysis; type: ADME, Microsome
# Chain of Cytochrome P450 2C19 (P33261 whole entry): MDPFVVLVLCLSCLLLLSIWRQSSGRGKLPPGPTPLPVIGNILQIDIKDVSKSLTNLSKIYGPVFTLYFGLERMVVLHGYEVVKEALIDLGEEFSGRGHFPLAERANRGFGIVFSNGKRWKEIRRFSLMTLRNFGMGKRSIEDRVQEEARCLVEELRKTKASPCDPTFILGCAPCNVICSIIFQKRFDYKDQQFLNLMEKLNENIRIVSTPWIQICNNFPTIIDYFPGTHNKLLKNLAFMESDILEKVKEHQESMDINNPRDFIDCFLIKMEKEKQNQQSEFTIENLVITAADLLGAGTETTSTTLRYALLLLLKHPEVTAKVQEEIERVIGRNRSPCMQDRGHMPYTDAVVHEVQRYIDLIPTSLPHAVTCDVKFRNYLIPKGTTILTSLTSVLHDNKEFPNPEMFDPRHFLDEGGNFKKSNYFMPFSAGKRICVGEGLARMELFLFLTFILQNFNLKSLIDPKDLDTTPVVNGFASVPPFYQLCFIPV
# [25] = Genotoxicity in Salmonella typhimurium TA98 incubated for 48 to 72 hrs in presence of S9 fraction by AMES test; type: toxicity, subcellular; conditions: salmonella enterica subsp. enterica serovar typhimurium, time 48-72 hrs
# [26] = Genotoxicity in Salmonella typhimurium TA1535 incubated for 48 to 72 hrs in presence of S9 fraction by AMES test; type: toxicity, subcellular; conditions: salmonella enterica subsp. enterica serovar typhimurium, time 48-72 hrs
# [27] = Genotoxicity in […] WP2 uvrA incubated for 48 to 72 hrs in presence of S9 fraction by AMES test; type: toxicity, subcellular; conditions: time 48-72 hrs
# [28] = Inhibition of pSLP76 in human PBMC cells incubated for 4 hrs by HTRF method; type: cell-based
# [29] = cynomolgus monkey, in vivo, po, 2 mg/kg
# [30] = in vivo; conditions: Balb/c, mouse, iv, 1 mg/kg
# Description: Volume of distribution in Balb/c mouse at 1 mg/kg, iv
# [31] = in vivo; conditions: Beagle, dog, po, 2 mg/kg
# Description: Half life in Beagle dog at 2 mg/kg, po
# [32] = in vivo; conditions: cynomolgus monkey, po, 2 mg/kg
# Description: Half life in Cynomolgus monkey at 2 mg/kg, po
compound,measurement,setting,value
COc1cc(Nc2ccc3c(n2)CN(C)C32CCN(C3COC3)CC2)c(C(N)=O)nc1-c1cccc2c1ncn2C,IC50,[1],325 nM
same,EC50,[2],43.3 nM
same,half-life,[3],3.42 h
same,bioavailability,[4],34.7%
same,AUC/dose,[5],408.8 ng·h/mL
same,IC50,[6],1740 nM
same,IC50,[7],325 nM
same,IC50,[8],377 nM
same,IC50,[9],116 nM
same,IC50,[10],> 10000 nM
same,IC50,[11],> 10000 nM
same,IC50,[12],317 nM
same,IC50,[13],> 10000 nM
same,IC50,[14],> 10000 nM
same,IC50,[15],2990 nM
same,IC50,[16],4420 nM
same,IC50,[17],1890 nM
same,Activity,[18],Non-toxic
same,TGI,[19],83.3%
same,Activity,[20],Non-toxic
same,solubility kinetic at 24 h,[21],2.14 µM
same,efflux ratio,[22],8.4
same,"fraction unbound at 4 h, 2 µM",[23],0.058
same,IC50,[24],> 50000 nM
same,Activity,[25],Non-toxic
same,Activity,[26],Non-toxic
same,Activity,[27],Non-toxic
same,IC50,[28],19.9 nM
same,AUC/dose,[29],560.5 ng·h/mL
same,Vd,[30],2.13 L/kg
same,half-life,[31],7.65 h
same,half-life,[32],8.73 h
